Reference: patent publication US20250269091A1, “UTILIZATION OF ELECTROPHORETIC DEPOSITION TO COAT MEDICAL IMPLANTS WITH THERAPEUTIC AGENTS IN A STERILE CLINICAL SETTING” (Rush University Medical Center, priority 2022, published 2025)

Legend:
[1] = Gentamicin release from titanium nanotubes, fractional volume sampling; format: physicochemical
Method: FIG. 13 illustrates a line graph showing the amount of gentamicin 2300 released from a titanium surface per hour 2400 after a two-step EPD process, as described above. […] Fractional volume sampling was carried out for 3 days. FIG. 15 illustrates the gentamicin concentration in the release solution, and FIG. 16 represents the cumulative release of gentamicin. An initial burst release was observed of around 78% in the first 10 minutes, then gentamicin was released at a slower rate up to 3 days.

[2] = test system: S. aureus; conditions: 4 ml of 1×10^5 CFU/ml S. aureus, 24 hours
Method: A gentamicin-loaded chitosan-coated wire was placed in one tube (loaded wire, LW). 0.25 mg gentamicin was added to the second tube (antibiotic control, AC). The third tube contained bacteria only and served as growth control (GC). The tubes were incubated for 24 hours, and the absorbance of the solutions was measured with a spectrophotometer in each tube.

[3] = test system: S. aureus Xen36; assay: Minimal inhibitory concentration by broth dilution method; format: cell-based, Staphylococcus aureus; conditions: against S. aureus Xen36, broth dilution
Method: FIGS. 17-20 show tests of the titanium rod of FIG. 3 against Staphylococcus aureus by agar dilution and liquid culture methods. To determine the antimicrobial activity of the loaded wires, S. aureus (Xen36, derived from ATCC 49525) bacteria were cultured overnight at 37° C. in Luria-Bertani medium. The minimal inhibitory concentration of gentamicin was determined by the broth dilution method. In the agar diffusion test, 100 μl of 1×10^6 colony forming units/ml S. aureus solution was inoculated on agar plates and dried. […] The inhibition zones (IZ) 1708, 1710 around the components were measured following 24 hours incubation at 37° C.
In the agar diffusion assay, an elliptical shaped IZ 1708 formed around the loaded wire 1702 (35 mm shorter and 45 mm longer axis).

Question: Which “duration of slower release of gentamicin” value ([1]; after the initial burst) does the source give for gentamicin here?
Answer: Its value is “up to 3 days”.

Question: What about the “drug concentration in release solution relative to MIC” value ([1]; entire period tested (3 days)) of the same substance?
Answer: Its value is “stayed above the determined minimum inhibitory concentration (MIC)”.

Question: And the “initial burst release of gentamicin” value ([1]; first 10 minutes, titanium nanotube surface after two-step EPD with gentamicin and chitosan)?
Answer: The value was “around 78%”.

Question: And the “cumulative amount of gentamicin detected” value ([1]; release over 3 days, titanium nanotube surface after two-step EPD)?
Answer: The value was 400 to 550 µg.

Question: What about the “bacterial density (absorbance) compared to growth control” value [2] of the same substance?
Answer: The value was “significantly decreased bacterial density”.

Question: And the MIC [3]?
Answer: Its MIC is 3.6 µg/mL.
